Legend:
humanized OX1 receptor = target: T1, humanized OX1 receptor (Homo sapiens, UniProt O43613); experiment: Antagonistic effect on humanized OX1 receptor, calcium flux by fluorescence detection in CHO cells; format: cell-based
T1 construct: expressed in transfected cells; host or cells: CHO (Chinese hamster ovary) cells
T1 sequence (O43613 1-425): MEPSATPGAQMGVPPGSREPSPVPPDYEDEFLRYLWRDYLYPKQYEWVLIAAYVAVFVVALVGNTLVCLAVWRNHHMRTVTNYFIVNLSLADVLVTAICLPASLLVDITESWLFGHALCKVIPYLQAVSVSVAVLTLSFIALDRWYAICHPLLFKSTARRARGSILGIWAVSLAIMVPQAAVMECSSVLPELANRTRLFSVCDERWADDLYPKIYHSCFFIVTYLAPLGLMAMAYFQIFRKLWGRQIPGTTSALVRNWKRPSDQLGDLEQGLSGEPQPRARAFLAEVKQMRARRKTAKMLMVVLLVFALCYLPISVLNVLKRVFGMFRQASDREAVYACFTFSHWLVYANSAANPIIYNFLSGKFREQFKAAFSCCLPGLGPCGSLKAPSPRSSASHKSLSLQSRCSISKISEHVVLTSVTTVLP
Protocol: The capability of the compounds provided herein to antagonize humanized OX1 receptor expressed in Chinese hamster ovary (CHO) cells was evaluated by the influence of the compounds disclosed herein on calcium flux in cells induced by agonist detected by a method of fluorescence detection. The cells were suspended in DMEM culture medium (invitrogen), and then added to a microplate with an average density of 2×10^4 cells/well. The Hank's balanced salt solution (pH 7.4) containing fluorescent probes (Fluo4 NW, Invitrogen), probenecid (invitrogen), 20 mM hydroxyethyl piperazine acetic sulfuric acid (invitrogen) was added to the above microplate, and then incubated together with the cells at 37° C. for 60 min, further incubated at 22° C. for 15 min. The microplate was placed in a microplate reader (CellLux, PerkinElmer), and to which was added the test compound or reference antagonist or Hank's balanced salt solution, 5 min later, 3 nM of orexin A or Hank's balanced salt solution (as a blank contrast) was added. […] The experimental results were expressed as an inhibition percentage relative to a control group (the group with 3 nM of orexin A).
The standard reference antagonist is SB334867, and IC50 values were calculated by the dose-effect curve obtained from a series of concentrations of the experimental test.

[1] = Pharmacokinetic evaluation after intravenous or gavage administration to rats; format: in vivo, SD rats; settings: SD, rat, in vivo
Protocol: The compounds disclosed herein were administered in form of a saline solution containing 5% DMSO, 5% Kolliphor HS 15, 2% (2% HCl) and 88% Saline, or a solution containing 10% DMSO, 10% Kolliphor HS 15 and 80% physiological saline to the subject animals. For intravenous administration, the animals were administered with a dose of 1 mg/kg or 2 mg/kg, and vein blood samples (0.3 mL) were collected at the time points of 0.083, 0.25, 0.5, 1.0, 2.0, 4.0, 6.0, 8.0 and 24 h after drug administration; plasma samples were collected by centrifugation of the vein blood samples at 3000 rpm or 4000 rpm for 10 minutes, and stored at −20° C. or −70° C. For gavage administration, the animals were administered with a dose of 2.5 mg/kg or 5 mg/kg, and vein blood samples (0.3 mL) were collected at the time points of 0.25, 0.5, 1.0, 2.0, 4.0, 6.0, 8.0 and 24 h after drug administration; plasma samples were collected by centrifugation at 3000 rpm or 4000 rpm for 10 minutes, and stored at −20° C. or −70° C. The positive control is suvorexant.
The above plasma samples were analyzed by the LC-MS/MS system.

[2] = Stability in human liver microsome; format: in vitro ADME; settings: human, microsomes, pH 4
Protocol: A mixture of the compound of the invention and human liver microsome in 0.1 M potassium phosphate buffer (containing 1.0 mM EDTA, pH=4) was incubated at 37° C., the sample concentrations at different incubation times were measured, and then the half life of the compound was calculated by plotting “the relative amount of the compound” against “incubation time” by using software GraphPad Prism 5.01, and intrinsic clearance was calculated. The experiment system shown as table 5:
The sample was analyzed by LC/MS/MS (ESI […] source and waters xbridge C18 EB-A-1420 chromatographic column were adopted), the mobile phases were an aqueous solution with 2 mM ammonium formate and 0.1% formic acid (mobile phase A) and an methanol solution with 2 mM ammonium formate and 0.1% formic acid (mobile phase B), the flow rate was 0.4 mL/min; the column temperature was 40° C. The ratio of the sample peak area to the internal standard peak area was obtained through LC/MS/MS analysis, the content of the compound at 0 time point was as 100%, the relative content of the compound at each time point was calculated. The half life of the compound was calculated by plotting “the relative amount of the compound” against “incubation time”, and intrinsic clearance was calculated.
The positive control is suvorexant.

With `Cc1ccc(-n2nccn2)c(C(=O)N2CC3CN(c4nc5cc(Cl)ccc5o4)CC3C2)c1` (stereo not shown) [Example 1, (5-(5-chlorobenzo[d]oxazol-2-yl)hexahydropyrrolo[3,4-c]pyrrol-2(1H)-yl)(5-methyl-2-(2H-1,2,3-triazol-2-yl)phenyl)methanone] as the compound, how does the IC50 (humanized OX1 receptor) read?
Its IC50 is 604 nM.

And the AUC(0-inf) ([1]; iv, 1 mg/kg)?
The AUC(0-inf) was 417 ng·h/mL.

And the AUC(0-t) ([1]; iv, 1 mg/kg)?
Its AUC(0-t) is 415 ng·h/mL.

And the Cmax ([1]; iv, 1 mg/kg)?
Its Cmax is 646 ng/mL.

And the MRT inf ([1]; iv, 1 mg/kg)?
Its MRT inf is 38.3 min.

What about the Vd ([1]; iv, 1 mg/kg) of the same compound?
Its Vd is 1.53 L/kg.

What about the clearance ([1]; iv, 1 mg/kg) of the same compound?
The clearance was 40 mL/min/kg.

What about the half-life ([1]; iv, 1 mg/kg) of the same compound?
Its half-life is 40.6 min.

What about the AUC(0-inf) ([1]; po, 2.5 mg/kg) of the same compound?
The AUC(0-inf) was 659 ng·h/mL.

What about the AUC(0-t) ([1]; po, 2.5 mg/kg) of the same compound?
The AUC(0-t) was 482 ng·h/mL.

And the Cmax ([1]; po, 2.5 mg/kg)?
Its Cmax is 181 ng/mL.

And the F ([1]; po, 2.5 mg/kg)?
Its F is 50.1%.

What about the MRT inf ([1]; po, 2.5 mg/kg) of the same compound?
Its MRT inf is 182 min.

What about the half-life ([1]; po, 2.5 mg/kg) of the same compound?
Its half-life is 133 min.

What about the CLint scaled at 1 μM [2] of the same compound?
Its CLint scaled at 1 μM is 35.1 mL/min/kg.

And the half-life at 1 μM [2]?
Its half-life at 1 μM is 49.5 min.

— patent US10370380B2, “Octahydropyrrolo[3,4-c]pyrrole derivatives and uses thereof” (Sunshine Lake Pharma Co., Ltd., priority 2015, dated 2019)
